Assay results published in patent US7645752B2, “Sulfonyl substituted 1H-indoles as ligands for the 5-hydroxytryptamine receptors” (Wyeth LLC, priority 2006, dated 2010).
Like-named read-outs stand apart in the source and are kept apart here.

How the values were obtained:
[1] = molecular target: human 5-HT2A receptor (Homo sapiens, UniProt P28223); assay: 5-HT2A FLIPR assay, antagonism of DOI calcium response in CHO cells; conditions: for inhibition at 1 µM: CHO, read-out: 5-HT2A % Inhibition @ 1 uM
[2] = molecular target: T1, human cloned 5-HT6 receptors (Homo sapiens, UniProt P50406); assay: 5-HT6 binding affinity, [3H]-LSD displacement on membranes of Hela cells
T1 construct: expressed in transfected cells; host or cells: HeLa cells
Method in brief: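 Filter-bound radioactivity counted by scintillation. Binding at varying test-compound concentrations expressed as percent of specific binding without compound and plotted log % bound versus log concentration.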

[3] = molecular target: T2, human hNET (Homo sapiens, UniProt P23975); assay: Norepinephrine (NE) uptake assay in MDCK-Net6 cells; type: cell-based
T2 construct: expressed in transfected cells

[4] = background statement; cited from earlier work
[5] = Table 1, 5-HT6 binding, at 1 micromole, read-out: % inhibition at 1 micromole
[6] = read-out: 5-HT2A IC50, antagonism of 3 nM DOI, CHO cells, FLIPR
[7] = Table 1, [3H]-LSD 3.0 nM, Hela cell membranes, read-out: Ki (nM) @ 5-HT6 receptor

T2 sequence (P23975 whole entry): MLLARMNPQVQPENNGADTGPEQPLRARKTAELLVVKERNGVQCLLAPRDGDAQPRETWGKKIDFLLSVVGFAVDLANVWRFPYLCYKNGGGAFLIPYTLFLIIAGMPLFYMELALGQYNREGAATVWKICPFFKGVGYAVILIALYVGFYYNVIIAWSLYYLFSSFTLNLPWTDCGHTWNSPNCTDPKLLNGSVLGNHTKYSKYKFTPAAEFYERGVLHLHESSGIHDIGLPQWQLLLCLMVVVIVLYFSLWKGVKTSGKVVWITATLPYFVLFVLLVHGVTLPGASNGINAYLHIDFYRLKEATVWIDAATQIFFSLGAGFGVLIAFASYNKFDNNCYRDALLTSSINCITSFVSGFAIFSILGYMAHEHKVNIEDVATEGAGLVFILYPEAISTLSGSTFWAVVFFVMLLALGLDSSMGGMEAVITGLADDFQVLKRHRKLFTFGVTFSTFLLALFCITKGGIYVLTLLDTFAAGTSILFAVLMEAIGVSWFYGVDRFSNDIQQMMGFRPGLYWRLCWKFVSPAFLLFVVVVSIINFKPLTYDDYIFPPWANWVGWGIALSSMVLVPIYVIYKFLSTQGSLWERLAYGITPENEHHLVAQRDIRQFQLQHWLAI
Chain of human 5-HT2A receptor (P28223 whole entry): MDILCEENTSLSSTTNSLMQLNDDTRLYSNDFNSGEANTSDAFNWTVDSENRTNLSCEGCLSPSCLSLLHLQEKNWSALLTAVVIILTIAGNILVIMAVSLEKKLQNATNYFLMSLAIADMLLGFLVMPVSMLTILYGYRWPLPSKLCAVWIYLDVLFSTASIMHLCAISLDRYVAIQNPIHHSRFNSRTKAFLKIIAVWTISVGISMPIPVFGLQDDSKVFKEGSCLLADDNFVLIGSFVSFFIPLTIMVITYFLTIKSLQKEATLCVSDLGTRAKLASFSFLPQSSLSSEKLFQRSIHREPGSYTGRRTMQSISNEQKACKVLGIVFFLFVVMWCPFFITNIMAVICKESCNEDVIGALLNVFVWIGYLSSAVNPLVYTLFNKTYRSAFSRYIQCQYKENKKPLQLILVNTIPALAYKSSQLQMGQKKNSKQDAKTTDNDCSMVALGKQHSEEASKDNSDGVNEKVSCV
T1 sequence (P50406 whole entry): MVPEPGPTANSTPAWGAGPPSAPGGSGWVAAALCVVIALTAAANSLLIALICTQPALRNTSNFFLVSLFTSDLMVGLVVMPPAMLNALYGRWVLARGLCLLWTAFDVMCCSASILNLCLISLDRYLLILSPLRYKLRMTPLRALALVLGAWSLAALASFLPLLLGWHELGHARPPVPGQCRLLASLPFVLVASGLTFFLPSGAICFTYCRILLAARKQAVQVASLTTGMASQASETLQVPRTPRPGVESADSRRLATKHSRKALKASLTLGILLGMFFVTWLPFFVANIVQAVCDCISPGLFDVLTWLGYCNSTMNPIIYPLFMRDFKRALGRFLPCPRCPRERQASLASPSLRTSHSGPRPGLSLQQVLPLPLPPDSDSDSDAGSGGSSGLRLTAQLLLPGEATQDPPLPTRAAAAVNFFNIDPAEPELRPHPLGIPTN

Row | SMILES | inhibition at 1 µM [1] [%] | inhibition at 1 µM [2, 5] [%] | IC50 ([3]; [3H]NE uptake, MDCK-Net6 cells) [nM] | IC50 [1, 6] [nM] | Ki [2, 7] [nM] | Ki ([2]; Table 2, read-out: 5-HT6 Ki) [nM] | IC50 [3] [nM] | also measured
1 | CCN(CC)CCc1cccc2[nH]cc(S(=O)(=O)c3ccccc3)c12 [Example 42, N,N-diethyl-N-{2-[3-(phenylsulfonyl)-1H-indol-4-yl]ethyl}amine] | 99 | 35 | 241 | – | – | – | – | inhibition at 1 µM ([2]; Table 2, @ 1 uM, read-out: 5-HT6 % Inhibition @ 1 uM): 35%
2 | CN1CCN2c3ccccc3Cc3ccccc3C2C1 (centres unmarked) [Mianserin, reference compound] | – | – | – | – | – | – | – | efficacy in hot flushes [4]: had efficacy in treating hot flushes
3 | CN(C)CCc1cccc2[nH]cc(S(=O)(=O)c3ccccc3)c12 [Example 31, N,N-dimethyl-N-{2-[3-(phenylsulfonyl)-1H-indol-4-yl]ethyl}amine] | – | 75 | 80 | 459 | 142 | 142 | – | –
4 | NCCc1cccc2[nH]cc(S(=O)(=O)c3ccccc3)c12 [Example 61, {2-[3-(phenylsulfonyl)-1H-indol-4-yl]ethyl}amine] | – | 44 | – | – | 993 | 993 | 961 | IC50 [1]: 14000 nM
5 | O=S(=O)(c1ccccc1)c1c[nH]c2cccc(CCN3CCCCC3)c12 [Example 44, 3-(phenylsulfonyl)-4-(2-piperidin-1-ylethyl)-1H-indole] | – | – | – | 180 | – | 434 | 47 | inhibition at 1 µM ([2]; read-out: % inhibition at 1 micromole): 69%
6 | O=S(=O)(c1ccccc1)c1c[nH]c2cccc(CCNCC3CCCO3)c12 (centres unmarked) [Example 51, N-{2-[3-(phenylsulfonyl)-1H-indol-4-yl]ethyl}-N-((tetrahydrofur-2-yl)methyl)amine] | 94 | – | – | – | 191 | 191 | – | inhibition at 1 µM ([3]; MDCK-Net6): 52%
